Assay results published in the supplement of paper PMC8617591.

Key:
[1] = system: Mycobacterium tuberculosis Erdman (autoluminescent); assay: FIC90 (Loewe) at 90% inhibition (log2); higher = more antagonistic
Procedure: (§1)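 DiaMOND equipotent two-drug combination dose responses against autoluminescent M. tuberculosis Erdman in 8 in vitro models. Read-out is OD600, or luminescence for the intracellular and dormancy models, normalised to untreated wells. Hill-fit Einf, AUC25 and GRinf are potency metrics; FIC50 and FIC90 are Loewe-additivity fractional inhibitory concentrations, given as log2 (negative = synergy). Replicates are averaged.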

[2] = system: Mycobacterium tuberculosis Erdman (autoluminescent); assay: FIC50 (Loewe) at 50% inhibition (log2); higher = more antagonistic
Procedure: as §1

[3] = system: Mycobacterium tuberculosis Erdman (autoluminescent); assay: Einf, fitted maximum growth inhibition of combination (fraction); higher = stronger maximal inhibition
Procedure: as §1

[4] = system: Mycobacterium tuberculosis Erdman (autoluminescent); assay: AUC25, normalised area under dose response up to IC25 (fraction (0-1)); higher = more potent at low dose
Procedure: as §1

[5] = system: Mycobacterium tuberculosis Erdman (autoluminescent); assay: GRinf, maximum normalised growth rate inhibition (unitless (-1 to 1)); higher = less effect (negative = killing)
Procedure: as §1

COc1c(N2C[C@@H]3CCCN[C@@H]3C2)c(F)cc2c(=O)c(C(=O)O)cn(C3CC3)c12 [moxifloxacin] + CO[C@H]1/C=C/O[C@@]2(C)Oc3c(C)c(O)c4c(O)c(c(/C=N/N5CCN(C)CC5)c(O)c4c3C2=O)NC(=O)/C(C)=C\C=C\[C@H](C)[C@H](O)[C@@H](C)[C@@H](O)[C@@H](C)[C@H](OC(C)=O)[C@@H]1C [rifampicin]
Details | AUC25, [4] | Einf, [3] | FIC50, [2] | FIC90, [1] | GRinf, [5]
in vitro model: acidic pH 5.7, time point: constant (~7 days, model-specific) | 0.0689 | 0.781 | 0.367 | – | 0.0866
in vitro model: acidic pH 5.7, time point: terminal (~4-5 doublings, model-specific) | 0.0663 | 0.968 | 0.382 | 0.156 | -0.0508
in vitro model: intracellular J774, time point: constant = terminal | – | 0.985 | – | 0.644 | -0.307

Details | AUC25, [4] | Einf, [3] | FIC50, [2] | FIC90, [1] | GRinf, [5]
in vitro model: butyrate, time point: constant (~7 days, model-specific) | 0.107 | 0.886 | 0.528 | 0.508 | 0.0889
in vitro model: butyrate, time point: terminal (~4-5 doublings, model-specific) | 0.0896 | 0.956 | 0.435 | 0.598 | 0.0327
in vitro model: cholesterol 0.05 mM, time point: constant (~7 days, model-specific) | 0.117 | 0.62 | 0.744 | – | 0.145
in vitro model: cholesterol 0.05 mM, time point: terminal (~4-5 doublings, model-specific) | 0.091 | 0.885 | 0.35 | -0.321 | -0.0751
in vitro model: cholesterol-high 0.2 mM, time point: constant (~7 days, model-specific) | 0.0744 | 0.8 | 0.432 | – | -0.0793
in vitro model: cholesterol-high 0.2 mM, time point: terminal (~4-5 doublings, model-specific) | 0.066 | 0.985 | 0.68 | 0.43 | -0.57
in vitro model: dormancy (butyrate + nitrate, low O2), time point: constant (~7 days, model-specific) | 0.071 | 0.923 | 0.513 | -0.28 | 0.0564
in vitro model: dormancy (butyrate + nitrate, low O2), time point: terminal (~4-5 doublings, model-specific) | 0.059 | 0.98 | 0.589 | 0.752 | -0.197
in vitro model: standard 7H9 glycerol, time point: constant = terminal | 0.0477 | 0.828 | 0.486 | – | 0.308
in vitro model: valerate, time point: constant (~7 days, model-specific) | 0.04 | 0.842 | 0.724 | – | 0.085
in vitro model: valerate, time point: terminal (~4-5 doublings, model-specific) | 0.0278 | 0.925 | 0.717 | 0.437 | 0.0646

COc1c(N2C[C@@H]3CCCN[C@@H]3C2)c(F)cc2c(=O)c(C(=O)O)cn(C3CC3)c12 [moxifloxacin] + NC(=O)c1cnccn1 [pyrazinamide]
Details | AUC25, [4] | Einf, [3] | FIC50, [2] | FIC90, [1] | GRinf, [5]
in vitro model: acidic pH 5.7, time point: constant (~7 days, model-specific) | 0.105 | 0.748 | -1.4 | – | -0.479
in vitro model: acidic pH 5.7, time point: terminal (~4-5 doublings, model-specific) | 0.0766 | 0.958 | 0.112 | -1.08 | -0.337
in vitro model: intracellular J774, time point: constant = terminal | – | 0.992 | – | 0.544 | -0.418

Details | AUC25, [4] | Einf, [3] | FIC50, [2] | FIC90, [1] | GRinf, [5]
in vitro model: butyrate, time point: constant (~7 days, model-specific) | 0.114 | 0.922 | 0.244 | 0.945 | -0.0871
in vitro model: butyrate, time point: terminal (~4-5 doublings, model-specific) | 0.076 | 0.967 | 0.181 | 0.416 | 0.0175
in vitro model: cholesterol 0.05 mM, time point: constant (~7 days, model-specific) | 0.12 | 0.628 | – | – | 0.0508
in vitro model: cholesterol 0.05 mM, time point: terminal (~4-5 doublings, model-specific) | 0.135 | 0.936 | -0.139 | 1.9 | -0.173
in vitro model: cholesterol-high 0.2 mM, time point: constant (~7 days, model-specific) | 0.0967 | 0.93 | 0.32 | – | -0.314
in vitro model: cholesterol-high 0.2 mM, time point: terminal (~4-5 doublings, model-specific) | 0.0857 | 0.997 | 0.528 | 0.356 | -0.695
in vitro model: dormancy (butyrate + nitrate, low O2), time point: constant (~7 days, model-specific) | 0.0895 | 0.921 | -0.473 | -0.106 | 0.0154
in vitro model: dormancy (butyrate + nitrate, low O2), time point: terminal (~4-5 doublings, model-specific) | 0.0636 | 0.983 | -0.404 | -0.148 | -0.105
in vitro model: standard 7H9 glycerol, time point: constant = terminal | 0.0774 | 0.974 | – | – | -0.163
in vitro model: valerate, time point: constant (~7 days, model-specific) | 0.0818 | 0.834 | 0.51 | – | -0.121
in vitro model: valerate, time point: terminal (~4-5 doublings, model-specific) | 0.0462 | 0.917 | 0.399 | 0.0879 | 0.0483

COc1c(N2C[C@@H]3CCCN[C@@H]3C2)c(F)cc2c(=O)c(C(=O)O)cn(C3CC3)c12 [moxifloxacin] + O=[N+]([O-])c1cn2c(n1)OC[C@@H](OCc1ccc(OC(F)(F)F)cc1)C2 [pretomanid]
Details | AUC25, [4] | Einf, [3] | FIC50, [2] | FIC90, [1] | GRinf, [5]
in vitro model: acidic pH 5.7, time point: constant (~7 days, model-specific) | 0.139 | 0.846 | 0.225 | – | -0.773
in vitro model: acidic pH 5.7, time point: terminal (~4-5 doublings, model-specific) | 0.107 | 0.976 | -0.052 | 0.879 | -0.428
in vitro model: intracellular J774, time point: constant = terminal | – | 0.993 | – | -0.156 | -0.437

Details | AUC25, [4] | Einf, [3] | FIC50, [2] | FIC90, [1] | GRinf, [5]
in vitro model: butyrate, time point: constant (~7 days, model-specific) | 0.0964 | 0.947 | 0.526 | 0.61 | -0.0779
in vitro model: butyrate, time point: terminal (~4-5 doublings, model-specific) | 0.0655 | 0.973 | 0.406 | 0.607 | -0.07
in vitro model: cholesterol 0.05 mM, time point: constant (~7 days, model-specific) | 0.119 | 0.751 | 0.221 | – | -0.223
in vitro model: cholesterol 0.05 mM, time point: terminal (~4-5 doublings, model-specific) | 0.105 | 0.938 | 0.248 | 0.691 | -0.248
in vitro model: cholesterol-high 0.2 mM, time point: constant (~7 days, model-specific) | 0.103 | 0.952 | 0.238 | 1.96 | -0.404
in vitro model: cholesterol-high 0.2 mM, time point: terminal (~4-5 doublings, model-specific) | 0.0655 | 1 | 0.457 | 0.364 | -0.745
in vitro model: dormancy (butyrate + nitrate, low O2), time point: constant (~7 days, model-specific) | 0.0724 | 0.898 | 0.568 | 0.524 | 0.165
in vitro model: dormancy (butyrate + nitrate, low O2), time point: terminal (~4-5 doublings, model-specific) | 0.0602 | 0.96 | 0.607 | 0.936 | -0.142
in vitro model: standard 7H9 glycerol, time point: constant = terminal | 0.0929 | 0.978 | -0.329 | 0.198 | -0.166
in vitro model: valerate, time point: constant (~7 days, model-specific) | 0.12 | 0.9 | -0.0268 | – | -0.302
in vitro model: valerate, time point: terminal (~4-5 doublings, model-specific) | 0.102 | 0.968 | -0.156 | 0.429 | -0.0344
